Laboratory results from ChEMBL document CHEMBL1133170, “Binding mode of the 4-anilinoquinazoline class of protein kinase inhibitor: X-ray crystallographic studies of 4-anilinoquinazolines bound to cyclin-dependent kinase 2 and p38 kinase” (J Med Chem, 2000).

Columns and labels:
MAP kinase p38 = MAP kinase p38 (Homo sapiens, UniProt O15264+Q15759+Q16539+P53778); assay: Inhibition of Mitogen-activated protein kinase p38; assay type: protein assay
[1] = target: Cyclin-dependent kinase 2 (Homo sapiens, UniProt P24941); assay: Inhibition of Cyclin-dependent kinase 2

COc1cc2ncnc(Nc3cccc(Br)c3)c2cc1OC
IC50 (MAP kinase p38): 6.3 µM | IC50 [1]: 250 µM
